In PubChem BioAssay AID330 (DTP/NCI, 2004):
Values joined by “and” are separate entries in the source; they are usually repeats but may differ in a detail not shown here. Identical values can stand only once. Inconclusive results and toxic doses are left out. Rule for the calls: active = survival T/C of 150% or more; inactive = T/C below 125% in these data.

Test system: P388 leukemia ip, CD2F1 mice, survival T/C
Assay: NCI In Vivo Anticancer Drug Screen. Data for tumor model P388 Leukemia (intraperitoneal) in CD2F1 (CDF1) mice
Conditions: endpoint: median survival time, higher = longer survival
Method in brief: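 Mice carrying the transplanted tumor received test compound or vehicle. Survival was recorded in each group, and the value is the treated-group measurement divided by that of the vehicle-treated control group.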

[1] = dose: 60.0 mg/kg/injection, schedule: Q01DX005 (ip), vehicle: saline with Tween-80
[2] = dose: 120.0 mg/kg/injection, schedule: Q01DX005 (ip), vehicle: saline with Tween-80
[3] = dose: 240.0 mg/kg/injection, schedule: Q01DX005 (ip), vehicle: saline with Tween-80
[4] = dose: 50.0 mg/kg/injection, schedule: Q01DX005 (ip), vehicle: saline with Tween-80
[5] = dose: 100.0 mg/kg/injection, schedule: Q01DX005 (ip), vehicle: saline with Tween-80
[6] = dose: 200.0 mg/kg/injection, schedule: Q01DX005 (ip), vehicle: saline with Tween-80
[7] = dose: 6.25 mg/kg/injection, schedule: Q01DX005 (ip), vehicle: Klucel (hydroxypropylcellulose) (HPC)
[8] = dose: 12.5 mg/kg/injection, schedule: Q01DX005 (ip), vehicle: saline with Tween-80
[9] = dose: 25.0 mg/kg/injection, schedule: Q01DX005 (ip), vehicle: saline with Tween-80
[10] = dose: 50.0 mg/kg/injection, schedule: Q01DX009 (ip), vehicle: Klucel (hydroxypropylcellulose) (HPC)
[11] = dose: 100.0 mg/kg/injection, schedule: Q01DX009 (ip), vehicle: Klucel (hydroxypropylcellulose) (HPC)
[12] = dose: 200.0 mg/kg/injection, schedule: Q01DX009 (ip), vehicle: Klucel (hydroxypropylcellulose) (HPC)

Measured: T/C

Cc1ccc(/[N+]([O-])=C/c2ccccc2)cc1
inactive: [1] 92 % of control | [2] 94 % of control | [3] 89 % of control

CC(N=c1ccccn1O)C(O)c1ccccc1 (centres undefined)
inactive: dose: 50.0 mg/kg/injection, schedule: Q01DX009 (ip), vehicle: saline 101 % of control | dose: 100.0 mg/kg/injection, schedule: Q01DX009 (ip), vehicle: saline 97 % of control | dose: 200.0 mg/kg/injection, schedule: Q01DX009 (ip), vehicle: saline 97 % of control

OC(COc1cccc2ccccc12)CN(CCCl)CCCl (centres undefined)
inactive: dose: 1.25 mg/kg/injection, schedule: Q01DX009 (ip), vehicle: saline 122 % of control | dose: 20.0 mg/kg/injection, schedule: Q01DX009 (ip), vehicle: saline 91 % of control

c1ccc(/C(=N\Nc2nc3ccccc3s2)c2ccccn2)cc1
inactive: [4] 104 % of control | [5] 109 % of control | [6] 95 % of control

COc1cc2c(cc1O)Cc1c-2[n+](C)cc2cc(OC)c(OC)cc12
inactive: [7] 117 % of control | dose: 12.5 mg/kg/injection, schedule: Q01DX005 (ip), vehicle: Klucel (hydroxypropylcellulose) (HPC) 109 % of control | dose: 25.0 mg/kg/injection, schedule: Q01DX005 (ip), vehicle: Klucel (hydroxypropylcellulose) (HPC) 115 % of control | dose: 100.0 mg/kg/injection, schedule: Q04DX002 (ip), vehicle: Klucel (hydroxypropylcellulose) (HPC) 119 % of control

COc1ccc(-c2c(-c3ccccc3)oc(/N=C/c3ccccc3)c2-c2ccccc2)cc1
inactive: [8] 101 % of control | [9] 90 % of control | [4] 90 % of control

NC(CSCCSCC(N)C(=O)O)C(=O)O (centres undefined)
inactive: [10] 110 % of control | [11] 98 % of control | [12] 104 % of control

C1=CN2CC(c3ccccc3)N=C2S1 (centres undefined)
inactive: dose: 12.5 mg/kg/injection, schedule: Q01DX009 (ip), vehicle: other 99 % of control | dose: 25.0 mg/kg/injection, schedule: Q01DX009 (ip), vehicle: other 102 % of control

O=c1oc(-c2ccccc2)nc2c1sc1nc(-c3ccccc3)oc(=O)c12
inactive: dose: 1.56 mg/kg/injection, schedule: Q01DX005 (ip), vehicle: Klucel (hydroxypropylcellulose) (HPC) 93 % of control | dose: 3.12 mg/kg/injection, schedule: Q01DX005 (ip), vehicle: Klucel (hydroxypropylcellulose) (HPC) 101 % of control and 91 % of control and 96 % of control | [7] 87 % of control and 88 % of control and 89 % of control | dose: 50.0 mg/kg/injection, schedule: Q01DX005 (ip), vehicle: Klucel (hydroxypropylcellulose) (HPC) 88 % of control and 92 % of control

CCSc1nc2c(N)nc(N)nc2[nH]c1=O
inactive: dose: 100.0 mg/kg/injection, schedule: Q04DX003 (ip), vehicle: Klucel (hydroxypropylcellulose) (HPC) 99 % of control | dose: 200.0 mg/kg/injection, schedule: Q04DX003 (ip), vehicle: Klucel (hydroxypropylcellulose) (HPC) 86 % of control

Cc1cc(C)c2nc(N/N=C/c3cccnc3)sc2c1
inactive: [10] 95 % of control | [11] 92 % of control | [12] 92 % of control

CCn1c2ccccc2c2cc(NC(=S)NC(=O)c3cccs3)ccc21
inactive: dose: 6.25 mg/kg/injection, schedule: Q01DX005 (ip), vehicle: saline with Tween-80 93 % of control | [8] 86 % of control | [9] 93 % of control | [5] 90 % of control | [6] 92 % of control

CC(C)NC(=O)OCc1c(COC(=O)NC(C)C)c(-c2ccc(Cl)c(Cl)c2)n2c1CSC2
inactive: dose: 25.0 mg/kg/injection, schedule: Q01DX005 (ip), vehicle: Klucel + Tween-80 91 % of control | dose: 50.0 mg/kg/injection, schedule: Q01DX005 (ip), vehicle: Klucel + Tween-80 88 % of control | dose: 100.0 mg/kg/injection, schedule: Q01DX005 (ip), vehicle: Klucel + Tween-80 87 % of control and 92 % of control | dose: 200.0 mg/kg/injection, schedule: Q01DX005 (ip), vehicle: Klucel + Tween-80 86 % of control and 88 % of control | dose: 400.0 mg/kg/injection, schedule: Q01DX005 (ip), vehicle: Klucel + Tween-80 89 % of control

COc1cc(OC)c2c(=O)c3cc(OC)c(OC)cc3oc2c1
inactive: dose: 8.3 mg/kg/injection, schedule: Q01DX009 (ip), vehicle: Klucel (hydroxypropylcellulose) (HPC) 98 % of control | dose: 16.5 mg/kg/injection, schedule: Q01DX009 (ip), vehicle: Klucel (hydroxypropylcellulose) (HPC) 117 % of control | dose: 33.0 mg/kg/injection, schedule: Q01DX009 (ip), vehicle: Klucel (hydroxypropylcellulose) (HPC) 107 % of control | dose: 66.0 mg/kg/injection, schedule: Q01DX009 (ip), vehicle: Klucel (hydroxypropylcellulose) (HPC) 107 % of control

O=C(NO)/C(CC(=O)c1ccc(O)cc1)=N\O
inactive: [1] 104 % of control | [2] 101 % of control | [3] 105 % of control
